According to patent US10251843B2, “Crosslinked nanoparticle composition” (priority 2015, dated 2019):

Legend:
[1] = mice, reported; cited from earlier work
[2] = In vivo pharmacokinetics, serum amoxicillin after oral gavage; details: ICR mice
Protocol: The experiments were performed on male and female ICR mice (6-8 weeks) to evaluate the amoxicillin concentration in serum. […] Each testing group contained 10 mice (five male and five female). The concentration of amoxicillin in each collected serum sample was determined by HPLC.

CC1(C)S[C@@H]2[C@H](NC(=O)[C@H](N)c3ccc(O)cc3)C(=O)N2[C@H]1C(=O)O.O.O.O [free amoxicillin, (2S,5R,6R)-6-[(R)-(−)-2-amino-2-(p-hydroxyphenyl)acetamido]-3,3-dimethyl-7-oxo-4-thia-1-azabicyclo[3.2.0]heptane-2-carboxylic acid trihydrate]
plasma half-life of amoxicillin [1]: about 40 minutes | time at which serum concentration of amoxicillin peaked ([2]; 2 mg amoxicillin): 15 min | serum concentration as % of the peak value ([2]; after 1 hour): below 50% | serum concentration as % of the peak value ([2]; after 2 hours): below 20% | area under the curve (total measured amount of drug in the circulation) ([2]; compared with the nanoparticle formulation): smaller area
